This note sets out measurements from patent US9242987B2, “Heterocyclyl pyrazolopyrimidine analogues as JAK inhibitors” (Cellzome Limited, priority 2009, dated 2016).

One test addresses T1, JAK2 (Homo sapiens, UniProt O60674).
T1 construct: endogenous in cells; host or cells: Mixed Molt4/Ramos lysate (1:2)
As to the kind of experiment: Kinobeads assay, JAK2. As to conditions: mixed Molt4/Ramos cell lysate, dot blot detection. It is filed as binding. Here is the method: (§1) The compounds of the present invention as described in the previous examples were tested in a Kinobeads™ assay as described for ZAP-70 (WO-A 2007/137867). Briefly, test compounds (at various concentrations) and the affinity matrix with the immobilized aminopyrido-pyrimidine ligand 24 were added to cell lysate aliquots and allowed to bind to the proteins in the lysate sample. After the incubation time the beads with captured proteins were separated from the lysate. Bound proteins were then eluted and the presence of JAK2 and JAK3 was detected and quantified using specific antibodies in a dot blot procedure and the Odyssey infrared detection system. Dose response curves for individual kinases were generated and IC50 values calculated. Kinobeads™ assays for ZAP-70 (WO-A 2007/137867) and for kinase selectivity profiling (WO-A 2006/134056) have been previously described.
(§2) The affinity matrix was washed two times with 15 mL of 1×DP buffer containing 0.2% NP40 (IGEPAL® CA-630, Sigma, #13021) and then resuspended in 1×DP buffer containing 0.2% NP40 (3% beads slurry).
(§3) 5×DP buffer: 250 mM Tris-HCl pH 7.4, 25% Glycerol, 7.5 mM MgCl2, 750 mM NaCl, 5 mM Na3VO4; filter the 5×DP buffer through a 0.22 μm filter and store in aliquots at −80° C. The 5×DP buffer is diluted with H2O to 1×DP buffer containing 1 mM DTT and 25 mM NaF.
(§4) Stock solutions of test compounds were prepared in DMSO. In a 96 well plate 30 μL solution of diluted test compounds at 5 mM in DMSO were prepared. Starting with this solution a 1:3 dilution series (9 steps) was prepared. For control experiments (no test compound) a buffer containing 2% DMSO was used.
(§5) Molt4 cells (ATCC catalogue number CRL-1582) and Ramos cells (ATCC catalogue number CRL-1596) were grown in 1 L Spinner flasks (Integra Biosciences, #182101) in suspension in RPMI 1640 medium (Invitrogen, #21875-034) supplemented with 10% Fetal Bovine Serum (Invitrogen) at a density between 0.15×10^6 and 1.2×10^6 cells/mL. Cells were harvested by centrifugation, washed once with 1×PBS buffer (Invitrogen, #14190-094) and cell pellets were frozen in liquid nitrogen and subsequently stored at −80° C. Cells were homogenized in a Potter S homogenizer in lysis buffer: 50 mM Tris-HCl, 0.8% NP40, 5% glycerol, 150 mM NaCl, 1.5 mM MgCl2, 25 mM NaF, 1 mM sodium vanadate, 1 mM DTT, pH 7.5. One complete EDTA-free tablet (protease inhibitor cocktail, Roche Diagnostics, 1873580) per 25 mL buffer was added. The material was dounced 10 times using a mechanized POTTER S, transferred to 50 mL falcon tubes, incubated for 30 minutes on ice and spun down for 10 minutes at 20,000 g at 4° C. (10,000 rpm in Sorvall SLA600, precooled). The supernatant was transferred to an ultracentrifuge (UZ)-polycarbonate tube (Beckmann, 355654) and spun for 1 hour at 100.000 g at 4° C. (33.500 rpm in Ti50.2, precooled). The supernatant was transferred again to a fresh 50 mL falcon tube, the protein concentration was determined by a Bradford assay (BioRad) and samples containing 50 mg of protein per aliquot were prepared. The samples were immediately used for experiments or frozen in liquid nitrogen and stored frozen at −80° C.
(§6) Cell lysate (approximately 50 mg protein per plate) was thawed in a water bath at room temperature and then stored on ice. To the thawed cell lysate 1×DP 0.8% NP40 buffer containing protease inhibitors (1 tablet for 25 mL buffer; EDTA-free protease inhibitor cocktail; Roche Diagnostics 1873580) was added in order to reach a final protein concentration of 10 mg/mL total protein. The diluted cell lysate was stored on ice. Mixed Molt4/Ramos lysate was prepared by combining one volume of Molt4 lysate and two volumes of Ramos lysate (ratio 1:2).
(§7) To a 96 well filter plate (Multiscreen HTS, BV Filter Plates, Millipore #MSBVN1250) were added per well: 100 μL affinity matrix (3% beads slurry), […], of compound solution, and 50 μL of diluted lysate. […]

The next test concerns the target T2, JAK3 (Homo sapiens, UniProt P52333).
T2 construct: endogenous in cells; host or cells: Mixed Molt4/Ramos lysate (1:2)
T2 sequence (P52333 1-1124): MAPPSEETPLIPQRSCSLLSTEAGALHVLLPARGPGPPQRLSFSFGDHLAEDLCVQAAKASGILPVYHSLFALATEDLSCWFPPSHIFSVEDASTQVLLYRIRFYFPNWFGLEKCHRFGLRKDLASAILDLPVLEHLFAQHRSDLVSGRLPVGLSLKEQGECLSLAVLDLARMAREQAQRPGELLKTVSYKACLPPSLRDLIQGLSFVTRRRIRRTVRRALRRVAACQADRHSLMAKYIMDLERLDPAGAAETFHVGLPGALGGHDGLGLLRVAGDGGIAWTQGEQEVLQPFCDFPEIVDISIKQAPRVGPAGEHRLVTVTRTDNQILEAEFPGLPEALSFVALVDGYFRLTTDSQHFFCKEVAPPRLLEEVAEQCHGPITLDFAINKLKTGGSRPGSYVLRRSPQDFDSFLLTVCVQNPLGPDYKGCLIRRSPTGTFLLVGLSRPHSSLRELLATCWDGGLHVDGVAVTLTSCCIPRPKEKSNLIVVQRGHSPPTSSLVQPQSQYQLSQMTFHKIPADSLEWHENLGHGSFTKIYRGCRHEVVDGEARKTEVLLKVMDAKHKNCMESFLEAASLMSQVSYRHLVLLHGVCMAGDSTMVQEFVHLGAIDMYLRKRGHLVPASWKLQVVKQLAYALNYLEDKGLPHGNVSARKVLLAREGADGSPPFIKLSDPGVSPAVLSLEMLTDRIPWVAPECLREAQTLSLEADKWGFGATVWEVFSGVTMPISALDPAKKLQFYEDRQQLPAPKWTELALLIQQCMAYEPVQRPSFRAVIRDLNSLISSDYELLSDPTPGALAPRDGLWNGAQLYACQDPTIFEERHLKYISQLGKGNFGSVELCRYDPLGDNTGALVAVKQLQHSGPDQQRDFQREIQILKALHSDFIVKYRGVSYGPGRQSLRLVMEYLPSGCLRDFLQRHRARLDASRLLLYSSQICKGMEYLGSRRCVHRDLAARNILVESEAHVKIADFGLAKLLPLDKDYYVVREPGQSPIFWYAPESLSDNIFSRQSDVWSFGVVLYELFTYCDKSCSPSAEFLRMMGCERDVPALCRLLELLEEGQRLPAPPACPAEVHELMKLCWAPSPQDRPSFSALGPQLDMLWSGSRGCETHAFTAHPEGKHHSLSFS
As to the kind of experiment: Kinobeads assay, JAK3. The test is classed as binding. As to conditions: mixed Molt4/Ramos cell lysate, dot blot detection. Here is the method:
as §1, §2, §3, §4, §5, §6, §7

T1 sequence (O60674 whole entry): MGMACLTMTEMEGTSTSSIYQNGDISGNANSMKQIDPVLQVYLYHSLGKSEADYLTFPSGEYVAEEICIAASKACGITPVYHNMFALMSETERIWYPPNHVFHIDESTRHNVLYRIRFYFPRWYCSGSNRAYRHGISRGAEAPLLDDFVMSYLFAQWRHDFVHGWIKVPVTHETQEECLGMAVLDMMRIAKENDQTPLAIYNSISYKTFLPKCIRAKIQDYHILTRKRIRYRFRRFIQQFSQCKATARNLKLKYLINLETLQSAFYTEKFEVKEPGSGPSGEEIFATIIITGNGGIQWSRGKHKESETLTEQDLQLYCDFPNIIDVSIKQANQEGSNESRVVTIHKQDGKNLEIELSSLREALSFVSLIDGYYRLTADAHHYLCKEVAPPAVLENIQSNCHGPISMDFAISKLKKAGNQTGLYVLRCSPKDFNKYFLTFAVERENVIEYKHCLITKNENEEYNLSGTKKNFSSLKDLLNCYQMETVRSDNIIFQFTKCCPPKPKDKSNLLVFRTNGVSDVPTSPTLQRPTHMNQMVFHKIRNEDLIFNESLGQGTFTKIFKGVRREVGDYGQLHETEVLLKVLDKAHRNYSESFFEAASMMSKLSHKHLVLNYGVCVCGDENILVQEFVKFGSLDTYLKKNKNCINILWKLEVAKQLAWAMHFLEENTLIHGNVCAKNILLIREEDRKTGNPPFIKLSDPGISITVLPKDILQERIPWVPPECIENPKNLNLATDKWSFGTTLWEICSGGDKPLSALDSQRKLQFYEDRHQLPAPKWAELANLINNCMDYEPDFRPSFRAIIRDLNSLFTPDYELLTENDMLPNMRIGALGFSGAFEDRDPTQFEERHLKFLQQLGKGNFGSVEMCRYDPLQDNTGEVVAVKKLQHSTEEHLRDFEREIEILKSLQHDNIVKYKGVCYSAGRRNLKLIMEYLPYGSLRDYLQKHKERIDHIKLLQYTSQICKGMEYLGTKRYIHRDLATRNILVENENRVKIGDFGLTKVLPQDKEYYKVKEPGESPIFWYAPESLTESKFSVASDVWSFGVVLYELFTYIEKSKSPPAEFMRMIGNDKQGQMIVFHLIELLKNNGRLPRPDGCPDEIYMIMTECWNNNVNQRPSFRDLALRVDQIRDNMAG

For the molecule `CNS(=O)(=O)c1ccc(-n2ncc3cnc(Nc4cnn(C)c4)nc32)cc1` [Example 40, N-Methyl-4-(6-(1-methyl-1H-pyrazol-4-ylamino)-1H-pyrazolo[3,4-d]pyrimidin-1-yl)benzenesulfonamide], the 50% inhibitory concentration (IC50) on JAK2 was 1000 to 10000 nM; on JAK3, 100 to 1000 nM.

`Cn1cc(Nc2ncc3cnn(Cc4ccccc4C(=O)O)c3n2)cn1` [Example 41, 2-((6-(1-Methyl-1H-pyrazol-4-ylamino)-1H-pyrazolo[3,4-d]pyrimidin-1-yl)methyl)benzoic acid]: the IC50 was in the range of 1000 to 10000 nM against JAK2 and 100 to 1000 nM against JAK3.

As for `NC(=O)c1ccccc1Cn1ncc2cnc(Nc3cnn(CC(F)F)c3)nc21` [Example 42, 2-((6-(1-(2,2-Difluoroethyl)-1H-pyrazol-4-ylamino)-1H-pyrazolo[3,4-d]pyrimidin-1-yl)methyl)benzamide], the IC50 against JAK2 was 1000 to 10000 nM; at JAK3, less than 100 nM.

Take `Cc1nn(CC(F)F)cc1Nc1ncc2cnn(Cc3ccccc3C(N)=O)c2n1` [Example 43, 2-((6-(1-(2,2-Difluoroethyl)-3-methyl-1H-pyrazol-4-ylamino)-1H-pyrazolo[3,4-d]pyrimidin-1-yl)methyl)benzamide]: the results for the IC50 at JAK2 and against JAK3 were 1000 to 10000 nM and 100 to 1000 nM, respectively.

Take `COc1nn(CCO)cc1Nc1ncc2cnn(Cc3ccccc3C#N)c2n1` [Example 44, 2-((6-(1-(2-Hydroxyethyl)-3-methoxy-1H-pyrazol-4-ylamino)-1H-pyrazolo[3,4-d]pyrimidin-1-yl)methyl)benzonitrile]: the half-maximal inhibitory concentration (IC50) was 1000 to 10000 nM at JAK2 and less than 100 nM at JAK3.

Take `Cn1cc(Nc2ncc3cnn(Cc4cccnc4F)c3n2)cn1` [Example 45, 1-((2-Fluoropyridin-3-yl)methyl)-N-(1-methyl-1H-pyrazol-4-yl)-1H-pyrazolo[3,4-d]pyrimidin-6-amine]: the half-maximal inhibitory concentration (IC50) against JAK2 was 1000 to 10000 nM; against JAK3, less than 100 nM.

For `Cn1cc(Nc2ncc3cnn(Cc4ccncc4F)c3n2)cn1` [Example 46, 1-((3-Fluoropyridin-4-yl)methyl)-N-(1-methyl-1H-pyrazol-4-yl)-1H-pyrazolo[3,4-d]pyrimidin-6-amine], the IC50 lay in the range of 1000 to 10000 nM against JAK2 and 100 to 1000 nM at JAK3.

As for `Cn1cc(Nc2ncc3cnn(Cc4ccc(F)cc4F)c3n2)cn1` [Example 47, 1-(2,4-Difluorobenzyl)-N-(1-methyl-1H-pyrazol-4-yl)-1H-pyrazolo[3,4-d]pyrimidin-6-amine], the figures for the half-inhibitory concentration (IC50) against JAK2 and on JAK3 were 1000 to 10000 nM and 100 to 1000 nM, respectively.

In the case of `Cn1cc(Nc2ncc3cnn(CCc4ccccc4)c3n2)cn1` [Example 48, N-(1-Methyl-1H-pyrazol-4-yl)-1-phenethyl-1H-pyrazolo[3,4-d]pyrimidin-6-amine], the IC50 against JAK2 is 1000 to 10000 nM; against JAK3, 100 to 1000 nM.

For `COc1nn(CCO)cc1Nc1ncc2cnn(Cc3ccccc3F)c2n1` [Example 49, 2-(4-(1-(2-Fluorobenzyl)-1H-pyrazolo[3,4-d]pyrimidin-6-ylamino)-3-methoxy-1H-pyrazol-1-yl)ethanol], the IC50 was 1000 to 10000 nM on JAK2 and less than 100 nM against JAK3.

On to `COc1nn(CCO)cc1Nc1ncc2cnn(Cc3cccc(F)c3F)c2n1` [Example 50, 2-(4-(1-(2,3-Difluorobenzyl)-1H-pyrazolo[3,4-d]pyrimidin-6-ylamino)-3-methoxy-1H-pyrazol-1-yl)ethanol], for which the figures for the IC50 against JAK2 and at JAK3 were 1000 to 10000 nM and less than 100 nM, respectively.

Regarding `COc1nn(CCO)cc1Nc1ncc2cnn(Cc3cc(F)ccc3F)c2n1` [Example 51, 2-(4-(1-(2,5-Difluorobenzyl)-1H-pyrazolo[3,4-d]pyrimidin-6-ylamino)-3-methoxy-1H-pyrazol-1-yl)ethanol], the IC50 was 1000 to 10000 nM against JAK2 and less than 100 nM at JAK3.

`Cn1cc(Nc2ncc3cnn(Cc4cc(F)ccc4C#N)c3n2)cn1` [Example 52, 4-Fluoro-2-((6-(1-methyl-1H-pyrazol-4-ylamino)-1H-pyrazolo[3,4-d]pyrimidin-1-yl)methyl)benzonitrile]: the IC50 at JAK2 and on JAK3 was less than 100 nM each time.

For `Cn1cc(Nc2ncc3cnn(Cc4cc(F)ccc4C(N)=O)c3n2)cn1` [Example 53, 4-Fluoro-2-((6-(1-methyl-1H-pyrazol-4-ylamino)-1H-pyrazolo[3,4-d]pyrimidin-1-yl)methyl)benzamide], the 50% inhibitory concentration (IC50) against JAK2 and at JAK3 was less than 100 nM each time.

In the case of `Cn1cc(Nc2ncc3cnn(-c4ccc(NS(C)(=O)=O)cn4)c3n2)cn1` [Example 54, N-(6-(6-(1-Methyl-1H-pyrazol-4-ylamino)-1H-pyrazolo[3,4-d]pyrimidin-1-yl)pyridin-3-yl)methanesulfonamide], the figures for the concentration for half-maximal inhibition (IC50) against JAK2 and against JAK3 were 1000 to 10000 nM and 100 to 1000 nM, respectively.

As for `Cc1nc(-n2ncc3cnc(Nc4cnn(C)c4)nc32)ccc1NS(C)(=O)=O` [Example 55, N-(2-Methyl-6-(6-(1-methyl-1H-pyrazol-4-ylamino)-1H-pyrazolo[3,4-d]pyrimidin-1-yl)pyridin-3-yl)methanesulfonamide], the half-inhibitory concentration (IC50) at JAK2 is 1000 to 10000 nM; on JAK3, 100 to 1000 nM.

As for `Cn1cc(Nc2ncc3cnn(-c4ccc(F)cc4)c3n2)cn1` [Example 56, 1-(4-Fluorophenyl)-N-(1-methyl-1H-pyrazol-4-yl)-1H-pyrazolo[3,4-d]pyrimidin-6-amine], the figures for the IC50 on JAK2 and against JAK3 were 1000 to 10000 nM and 100 to 1000 nM, respectively.

For the molecule `Cn1cc(Nc2ncc3cnn(-c4ccc(Cl)cc4)c3n2)cn1` [Example 57, 1-(4-Chlorophenyl)-N-(1-methyl-1H-pyrazol-4-yl)-1H-pyrazolo[3,4-d]pyrimidin-6-amine], the IC50 against JAK2 is no less than 10000 nM; against JAK3, 100 to 1000 nM.
